Experiments:
GSPT1 = GSPT1 (Homo sapiens (Human), UniProt P15170+Q96SW2); assay: Western blot, substrate protein expression in hPBMC: GSPT1; format: cell-based; details: hPBMC, compound 500 nM, 24 hours, Western blot
In short: (§1)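 hPBMC, 1×10^6 cells/mL, 24 h compound exposure; RIPA lysis, BCA protein assay, SDS-PAGE, NC membrane immunoblot. Densitometry vs internal control → % protein remaining; degradation % = 100% − remaining; DC50 = conc. at 50% of DMSO band signal.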

IKZF1 = IKZF1 (Homo sapiens (Human), UniProt Q13422+Q96SW2); assay: Western blot, substrate protein expression in hPBMC: IKZF1; format: cell-based; details: hPBMC, compound 500 nM, 24 hours, Western blot
In short: as §1

[1] = biological target: human Cereblon WT GST-tagged protein (Homo sapiens (Human), UniProt Q96SW2); assay: CRBN-binding affinity, HTRF (CEREBLON BINDING kit, CISBIO); details: HTRF inhibitory activity
In short: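 HTRF competition format: test compound displaces Thalidomide-Red from GST-tagged human Cereblon WT, detected with a Eu-labelled anti-GST antibody. Percent CRBN binding inhibition was derived from the 620 nm signal, normalized to solvent-control and protein-free blank wells.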

IKZF3 = IKZF3 (Homo sapiens (Human), UniProt Q96SW2+Q9UKT9); assay: Western blot, substrate protein expression in hPBMC: IKZF3; format: cell-based; details: hPBMC, compound 500 nM, 24 hours, Western blot
In short: as §1

Chain of IKZF3 (Q9UKT9 whole entry): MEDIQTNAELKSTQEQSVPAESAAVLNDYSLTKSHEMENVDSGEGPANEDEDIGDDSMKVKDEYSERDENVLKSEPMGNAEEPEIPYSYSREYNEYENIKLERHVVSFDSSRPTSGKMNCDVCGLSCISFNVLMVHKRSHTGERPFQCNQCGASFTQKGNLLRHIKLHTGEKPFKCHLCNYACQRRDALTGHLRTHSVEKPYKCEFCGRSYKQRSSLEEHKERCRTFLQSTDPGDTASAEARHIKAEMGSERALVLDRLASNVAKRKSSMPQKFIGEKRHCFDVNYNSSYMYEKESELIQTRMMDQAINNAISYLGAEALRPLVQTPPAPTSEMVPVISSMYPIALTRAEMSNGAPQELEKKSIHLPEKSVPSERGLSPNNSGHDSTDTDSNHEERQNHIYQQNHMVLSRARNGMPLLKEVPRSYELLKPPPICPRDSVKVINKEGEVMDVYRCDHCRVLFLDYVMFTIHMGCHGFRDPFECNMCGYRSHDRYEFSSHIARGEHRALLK
Chain of IKZF3 (Q96SW2 whole entry): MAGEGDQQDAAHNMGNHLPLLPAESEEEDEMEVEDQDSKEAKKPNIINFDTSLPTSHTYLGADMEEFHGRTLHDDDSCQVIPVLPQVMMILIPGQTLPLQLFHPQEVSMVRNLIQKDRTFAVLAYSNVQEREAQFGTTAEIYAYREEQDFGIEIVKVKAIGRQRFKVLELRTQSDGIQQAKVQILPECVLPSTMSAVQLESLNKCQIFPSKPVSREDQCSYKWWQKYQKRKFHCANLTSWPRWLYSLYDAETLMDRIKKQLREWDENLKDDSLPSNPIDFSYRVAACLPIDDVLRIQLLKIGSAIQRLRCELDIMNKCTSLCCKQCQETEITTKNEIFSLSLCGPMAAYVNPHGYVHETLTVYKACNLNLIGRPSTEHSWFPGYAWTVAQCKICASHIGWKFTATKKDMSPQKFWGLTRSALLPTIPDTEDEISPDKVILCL
Chain of IKZF3 (Q16531 whole entry partner): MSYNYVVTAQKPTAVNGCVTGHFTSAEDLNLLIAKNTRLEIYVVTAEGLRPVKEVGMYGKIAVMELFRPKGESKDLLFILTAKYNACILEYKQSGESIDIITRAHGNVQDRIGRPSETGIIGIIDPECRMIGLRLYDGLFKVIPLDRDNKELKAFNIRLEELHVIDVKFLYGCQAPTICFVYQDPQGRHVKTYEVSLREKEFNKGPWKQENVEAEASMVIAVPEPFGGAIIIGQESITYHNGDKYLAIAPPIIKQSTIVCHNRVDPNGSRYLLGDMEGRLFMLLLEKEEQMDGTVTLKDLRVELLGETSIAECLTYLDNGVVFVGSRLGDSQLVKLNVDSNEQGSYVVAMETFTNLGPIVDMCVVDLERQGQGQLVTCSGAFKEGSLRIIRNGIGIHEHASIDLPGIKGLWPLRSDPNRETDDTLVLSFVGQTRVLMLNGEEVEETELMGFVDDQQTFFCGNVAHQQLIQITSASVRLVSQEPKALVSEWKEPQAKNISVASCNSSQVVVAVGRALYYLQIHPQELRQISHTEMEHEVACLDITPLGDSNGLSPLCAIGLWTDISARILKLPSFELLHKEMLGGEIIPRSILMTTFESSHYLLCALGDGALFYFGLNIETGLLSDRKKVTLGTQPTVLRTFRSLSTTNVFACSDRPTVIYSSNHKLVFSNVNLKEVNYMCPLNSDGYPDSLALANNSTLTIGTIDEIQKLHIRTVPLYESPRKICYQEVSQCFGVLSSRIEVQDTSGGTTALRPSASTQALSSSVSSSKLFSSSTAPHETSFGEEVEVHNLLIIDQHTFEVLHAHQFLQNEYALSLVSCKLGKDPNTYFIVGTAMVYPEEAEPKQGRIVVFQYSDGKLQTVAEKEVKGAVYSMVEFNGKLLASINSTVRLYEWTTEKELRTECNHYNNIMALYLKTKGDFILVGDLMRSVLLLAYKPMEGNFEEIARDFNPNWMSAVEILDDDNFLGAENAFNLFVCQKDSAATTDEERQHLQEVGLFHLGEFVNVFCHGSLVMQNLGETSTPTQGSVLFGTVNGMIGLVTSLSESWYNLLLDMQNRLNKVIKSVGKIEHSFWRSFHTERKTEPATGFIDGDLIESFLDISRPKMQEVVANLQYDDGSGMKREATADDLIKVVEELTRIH
Chain of IKZF1 (Q13422 whole entry): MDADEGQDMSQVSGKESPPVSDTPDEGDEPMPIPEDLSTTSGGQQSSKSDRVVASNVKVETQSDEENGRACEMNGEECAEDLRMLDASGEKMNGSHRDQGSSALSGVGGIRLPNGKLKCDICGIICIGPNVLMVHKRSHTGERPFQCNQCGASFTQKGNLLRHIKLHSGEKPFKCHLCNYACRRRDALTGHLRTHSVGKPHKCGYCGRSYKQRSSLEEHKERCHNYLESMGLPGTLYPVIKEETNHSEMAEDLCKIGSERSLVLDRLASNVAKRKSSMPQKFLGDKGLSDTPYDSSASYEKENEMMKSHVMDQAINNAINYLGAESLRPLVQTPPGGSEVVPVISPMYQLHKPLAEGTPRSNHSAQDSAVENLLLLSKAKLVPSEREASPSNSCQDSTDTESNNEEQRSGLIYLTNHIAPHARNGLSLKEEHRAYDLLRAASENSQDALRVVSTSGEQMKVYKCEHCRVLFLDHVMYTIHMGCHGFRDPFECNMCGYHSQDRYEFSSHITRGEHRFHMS
Chain of IKZF1 (Q96SW2 whole entry): as the sequence (Q96SW2 whole entry) above
Chain of IKZF1 (Q16531 whole entry partner): as the sequence (Q16531 whole entry partner) above
Chain of GSPT1 (P15170 whole entry): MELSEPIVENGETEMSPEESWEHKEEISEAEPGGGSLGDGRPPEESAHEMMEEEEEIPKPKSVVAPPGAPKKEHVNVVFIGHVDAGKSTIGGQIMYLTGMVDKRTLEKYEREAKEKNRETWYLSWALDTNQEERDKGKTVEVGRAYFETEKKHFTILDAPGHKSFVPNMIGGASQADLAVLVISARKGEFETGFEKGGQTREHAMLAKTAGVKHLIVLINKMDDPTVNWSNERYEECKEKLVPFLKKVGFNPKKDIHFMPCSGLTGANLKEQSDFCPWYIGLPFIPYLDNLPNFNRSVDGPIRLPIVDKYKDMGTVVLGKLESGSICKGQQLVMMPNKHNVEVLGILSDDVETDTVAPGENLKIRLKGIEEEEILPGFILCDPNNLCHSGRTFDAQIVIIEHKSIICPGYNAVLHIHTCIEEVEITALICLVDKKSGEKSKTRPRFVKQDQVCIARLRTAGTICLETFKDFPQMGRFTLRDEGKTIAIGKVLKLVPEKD
Chain of GSPT1 (Q96SW2 whole entry): as the sequence (Q96SW2 whole entry) above
Chain of GSPT1 (Q16531 whole entry partner): as the sequence (Q16531 whole entry partner) above
Chain of human Cereblon WT GST-tagged protein (Q96SW2 whole entry): as the sequence (Q96SW2 whole entry) above

| Structure (SMILES) | substrate protein remaining % GSPT1 (GSPT1) | substrate protein remaining % IKZF1 (IKZF1) | IC50 [1] [µM] | substrate protein remaining % IKZF3 (IKZF3) |
| --- | --- | --- | --- | --- |
| O=C1CCC(N2Cc3c(CN4CC5CN(C(c6ccccc6)c6ccccc6)CC5C4)cccc3C2=O)C(=O)N1 (stereo not drawn) [GT-06052, 3-(4-((5-benzhydrylhexahydropyrrolo[3,4-c]pyrrol-2 (1H)-yl)methyl)-1-oxoisoindolin-2-yl)piperidine-2,6-dione] | A (A represents 0% ≤ substrate protein remaining % ≤ 50%) | B (B represents substrate protein remaining % > 50%) | < 0.5 | B (B represents substrate protein remaining % > 50%) |
| CC1(C)CN(C(=O)c2ccc3c(c2)CN(C2CCC(=O)NC2=O)C3=O)CCN1C(c1ccccc1)c1ccccc1 (stereo not drawn) [GT-06061, 3-(5-(4-benzhydryl-3,3-dimethylpiperazine-1-carbonyl)-1-oxoisoindolin-2-yl)piperidine-2,6-dione] | A (A represents 0% ≤ substrate protein remaining % ≤ 50%) | B (B represents substrate protein remaining % > 50%) | 0.5 to 1 | B (B represents substrate protein remaining % > 50%) |
| O=C1CCC(N2Cc3cc(C(=O)N4CCC5(CCN(C(c6ccccc6)c6ccccc6)CC5)C4)ccc3C2=O)C(=O)N1 (stereo not drawn) [GT-06063, 3-(5-(8-benzhydryl-2,8-diazaspiro[4.5]decane-2-carbonyl)-1-oxoisoindolin-2-yl)piperidine-2,6-dione] | A (A represents 0% ≤ substrate protein remaining % ≤ 50%) | B (B represents substrate protein remaining % > 50%) | 0.5 to 1 | B (B represents substrate protein remaining % > 50%) |
| O=C1CCC(N2Cc3cc(C(=O)N4CCC5(CC4)CCN(C(c4ccccc4)c4ccccc4)CC5)ccc3C2=O)C(=O)N1 (stereo not drawn) [GT-06065, 3-(5-(9-benzhydryl-3,9-diazaspiro[5.5]undecane-3-carbonyl)-1-oxoisoindolin-2-yl)piperidine-2,6-dione] | A (A represents 0% ≤ substrate protein remaining % ≤ 50%) | B (B represents substrate protein remaining % > 50%) | < 0.5 | B (B represents substrate protein remaining % > 50%) |
| O=C1CCC(N2Cc3cc(C(=O)N4CC5CN(C(c6ccccc6)c6ccccc6)CC5C4)ccc3C2=O)C(=O)N1 (stereo not drawn) [GT-06067, 3-(5-(5-benzhydryloctahydropyrrolo[3,4-c]pyrrole-2-carbonyl)-1-oxoisoindolin-2-yl)piperidine-2,6-dione] | A (A represents 0% ≤ substrate protein remaining % ≤ 50%) | B (B represents substrate protein remaining % > 50%) | 0.5 to 1 | B (B represents substrate protein remaining % > 50%) |
| O=C1CCC(N2Cc3cc(C(=O)N4CCN(C(c5ccccc5)c5ccccc5)CC4C(F)(F)F)ccc3C2=O)C(=O)N1 (stereo not drawn) [GT-06071, 3-(5-(4-benzhydryl-2-(trifluoromethyl)piperazine-1-carbonyl)-1-oxoisoindolin-2-yl)piperidine-2,6-dione] | A (A represents 0% ≤ substrate protein remaining % ≤ 50%) | B (B represents substrate protein remaining % > 50%) | 0.5 to 1 | B (B represents substrate protein remaining % > 50%) |
| O=C1CCC(N2Cc3cc(C(=O)N4CCN(C(c5ccccc5)c5ccccc5)CC4C(F)(F)F)cc(F)c3C2=O)C(=O)N1 (stereo not drawn) [GT-06090, 3-(5-(4-benzhydryl-2-(trifluoromethyl)piperazine-1-carbonyl)-7-fluoro-1-oxoisoindolin-2-yl)piperidine-2,6-dione] | A (A represents 0% ≤ substrate protein remaining % ≤ 50%) | B (B represents substrate protein remaining % > 50%) | 1 to 1.9 | B (B represents substrate protein remaining % > 50%) |
| C[C@@H]1CN(C(c2ccccc2)c2ccccc2)CCN1C(=O)c1ccc2c(c1)CN(C1CCC(=O)NC1=O)C2=O (stereo partly drawn) [GT-06092, 3-(5-((R)-4-benzhydryl-2-methylpiperazine-1-carbonyl)-1-oxoisoindolin-2-yl)piperidine-2,6-dione] | A (A represents 0% ≤ substrate protein remaining % ≤ 50%) | B (B represents substrate protein remaining % > 50%) | < 0.5 | B (B represents substrate protein remaining % > 50%) |
| C[C@@H]1CN(C(c2ccccc2)c2ccccc2)CCN1C(=O)c1cc(F)c2c(c1)CN(C1CCC(=O)NC1=O)C2=O (stereo partly drawn) [GT-06093, 3-(5-((R)-4-benzhydryl-2-methylpiperazine-1-carbonyl)-7-fluoro-1-oxoisoindolin-2-yl)piperidine-2,6-dione] | A (A represents 0% ≤ substrate protein remaining % ≤ 50%) | B (B represents substrate protein remaining % > 50%) | 0.5 to 1 | B (B represents substrate protein remaining % > 50%) |
| O=C1CCC(N2Cc3cc(CN4CCN(C(c5ccccc5)c5ccccc5)CC4C(F)(F)F)ccc3C2=O)C(=O)N1 (stereo not drawn) [GT-06095, 3-(5-((4-benzhydryl-2-(trifluoromethyl)piperazin-1-yl)methyl)-1-oxoisoindolin-2-yl)piperidine-2,6-dione] | A (A represents 0% ≤ substrate protein remaining % ≤ 50%) | B (B represents substrate protein remaining % > 50%) | 0.5 to 1 | B (B represents substrate protein remaining % > 50%) |
| O=C1CCC(N2Cc3c(ccc(CN4CCN(C(c5ccccc5)c5ccccc5)CC4C(F)(F)F)c3F)C2=O)C(=O)N1 (stereo not drawn) [GT-06096, 3-(5-((4-benzhydryl-2-(trifluoromethyl)piperazin-1-yl)methyl)-4-fluoro-1-oxoisoindolin-2-yl)piperidine-2,6-dione] | A (A represents 0% ≤ substrate protein remaining % ≤ 50%) | B (B represents substrate protein remaining % > 50%) | 0.5 to 1 | A (A represents 0% ≤ substrate protein remaining % ≤ 50%) |
| O=C1CCC(N2Cc3cc(CN4CCN(C(c5ccccc5)c5ccccc5)CC4C(F)(F)F)c(F)cc3C2=O)C(=O)N1 (stereo not drawn) [GT-06097, 3-(5-((4-benzhydryl-2-(trifluoromethyl)piperazin-1-yl)methyl)-6-fluoro-1-oxoisoindolin-2-yl)piperidine-2,6-dione] | A (A represents 0% ≤ substrate protein remaining % ≤ 50%) | B (B represents substrate protein remaining % > 50%) | 0.5 to 1 | B (B represents substrate protein remaining % > 50%) |
| O=C1CCC(N2C(=O)c3ccc(CN4CCN(C(c5ccccc5)c5cccnc5)CC4)cc3C2=O)C(=O)N1 (stereo not drawn) [GT-06114, 2-(2,6-dioxopiperidin-3-yl)-5-((4-(phenyl(pyridin-3-yl)methyl)piperazin-1-yl)methyl) isoindoline-1,3-dione] | A (A represents 0% ≤ substrate protein remaining % ≤ 50%) | B (B represents substrate protein remaining % > 50%) | 1 to 1.9 | B (B represents substrate protein remaining % > 50%) |
| O=C1CCC(N2Cc3cccc(CN4CCN(C(c5cccc(F)c5)c5cccc(F)c5)CC4)c3C2=O)C(=O)N1 (stereo not drawn) [GT-06117, 3-(7-((4-(bis(3-fluorophenyl)methyl)piperazin-1-yl)methyl)-1-oxoisoindolin-2-yl)piperidine-2,6-dione] | A (A represents 0% ≤ substrate protein remaining % ≤ 50%) | B (B represents substrate protein remaining % > 50%) | 0.5 to 1 | B (B represents substrate protein remaining % > 50%) |
| O=C1CCC(N2C(=O)c3ccc(C(=O)N4CCN(C(c5ccccc5F)c5ccccc5F)CC4)cc3C2=O)C(=O)N1 (stereo not drawn) [GT-06141, 5-(4-(bis(2-fluorophenyl)methyl)piperazine-1-carbonyl)-2-(2,6-dioxopiperidin-3-yl) isoindoline-1,3-dione] | A (A represents 0% ≤ substrate protein remaining % ≤ 50%) | B (B represents substrate protein remaining % > 50%) | 0.5 to 1 | B (B represents substrate protein remaining % > 50%) |

Source: US20250320193A1, “OXOISOINDOLINYL SUBSTITUTED PIPERIDINEDIONE DERIVATIVE AND USE THEREOF” (GLUETACS THERAPEUTICS (SHANGHAI) CO., LTD., priority 2022, published 2025)
